Patent US20180051284A1, “INHIBITORS OF MIR-17-92 CLUSTER FOR ANTI-TUMOR ACTIVITY IN MULTIPLE MYELOMA AND OTHER MALIGNANCIES” (priority 2014, published 2018)
l = locked nucleic acid (LNA); d = 2'-deoxy (DNA)

Columns and labels:
AMO1/abzb xenografts = assay: In vivo tumor growth of Bortezomib-refractory AMO1/abzb xenografts (IVIS); design: species or system mice; settings: I.P. Bortezomib 1 mg/kg; Bortezomib-refractory model
Text: Male CB-17 severe combined immunodeficient (SCID) mice (6- to 8-weeks old; Harlan Laboratories, Inc., Indianapolis) were housed and monitored in our Animal Research Facility. All experimental procedures and protocols had been approved by the Institutional Ethical Committee (Magna Graecia University) and conducted according to protocols approved by the National Directorate of Veterinary Services (Italy). In accordance with institutional guidelines, mice were sacrificed when tumors reached 2 cm in diameter or in the event of paralysis or major compromise, to prevent unnecessary suffering. Animal experimental procedures have been performed as in previous reports (Di Martino et al, CCR 2012; Di Martino el al. Oncotarget 2013, Di Martino et al PlosOne 2014). […] Mice were also inoculated with 5×10^6 luciferase gene-marked U266, AMO-1, AMO-1/abzb, treatments were performed intraperitoneally (i.p.), and tumor volume were measured by IVIS Lumina II.
In vivo anti-MM activity of LNA gapmer_06 was next evaluated in NOD/SCID mice bearing subcutaneous AMO1 xenografts. […] Tumors volume were measured using IVIS LUMINA II Imaging We next evaluate the in vivo activity in Bortezomib-refractory model of human MM. […] Tumors volume were measured using IVIS LUMINA II Imaging System.

[1] = tested on: miR-17-92 primary transcript (pri-miRs) and mature miR-17-92 cluster members; assay: q-RT-PCR of miR-17-92 member family and two pri-miRs after transfection of MM cells; format: cell-based, Human; settings: 48 hours after transfection with 25 nM; NCI-H929 and RPMI-8226 cells; relative to RNase-free water
Protocol: 3×10^5 cells were transfected using Neon Transfection System (Invitrogen, Calif.,U.S.), (2 pulses at 1150, 30ms). The transfection efficiency evaluated by flow-cytometric analysis relative to a FAM dye—labeled anti-miR—negative control reached 85% to 90%.
Reverse transcription (RT) of both primary and mature miRNAs was performed using TaqMan® MicroRNA Assays, following a procedure for multiplexing the RT step (Life Technologies, Publication Part Number 4465407). Briefly, 500 ng of total RNA, prepared with the TRIzol® Reagent (Invitrogen), underwent reverse transcription by the Taq-Man® MicroRNA RT Kit. In this reaction, the RT primer pool was composed by the individual RT primers for each microRNA belonging to the miR-17-92 cluster and two RT primers to allow the reverse transcription of the miR-17-92 primary miRNA. Real-time PCR was performed using TaqMan® MicroRNA Assays together with the TaqMan® Universal PCR Master Mix on an ViiA7 System (Life Technologies). Both primary and mature microRNAs expressions were relatively quantified using the 2-ΔΔCt method (Applied Biosystems User Bulletin No. 2), and expressed as the relative quantity of target miRNA normalized to the RNU44 (assay ID 001094) housekeeping gene. Comparative real-time polymerase chain reaction (RT-PCR) was performed in triplicate, including no-template controls. Relative expression was calculated using the comparative cross threshold (Ct) method.
By the use of a custom q-RT-PCR plate specifically designed by us to detect all six mature miR-17-92 members and the primary transcript by two different assays (pri-mir-17/18a/19a and pri-mir-19b1/20a/92a1), we quantified in a panel of 11 MM cell lines the levels of the different miRNAs and pri-miRs.

| Molecule | tumor growth (IVIS tumor volume) (AMO1/abzb xenografts) | downregulation of primary and mature miRNA sequences (q-RT-PCR) [1] |
| --- | --- | --- |
| CC(C)C[C@H](NC(=O)[C@H](Cc1ccccc1)NC(=O)c1cnccn1)B(O)O [Bortezomib, reference compound] | no effect on tumor-growth | – |
| gapmer_15: LNA/DNA gapmer, SEQ ID 7 (16 mer): +A*+G*+C*A*C*T*C*A*A*C*A*T*C*+A*+G*+C (AGCACTCAACATCAGC; sugars from the 5' end l3 d10 l3, all phosphorothioate, methylation of C not given here) | – | strongest downregulation of primary transcripts and miR-17-92 mature members |
